Measurements taken from patent publication US20180244653A1, “SELECTIVE ALPHA-7 NICOTINIC RECEPTOR AGONISTS AND METHODS FOR MAKING AND USING THEM” (THE REGENTS OF THE UNIVERSITY OF CALIFORNIA, priority 2015, published 2018).

Key:
Type in all cases: in vivo
[1] = test system: scopolamine-induced amnesic mice; test: Modified Y-maze test; settings: i.p. 1 h before, scopolamine 1 mg/kg, doses as in the sentence
Method: The modified Y-maze test was performed to evaluate spatial working memory. The experiment was divided into 3 sessions; (i) IND8 at 5, 10, and 50 μmol/kg or 1.5, 2.9, and 14.7 mg/kg doses, (ii) QND8 at 5, 10, and 50 μmol/kg or 1.4, 2.7, 13.5 mg/kg doses, and (iii) IND8 and QND8 at dose of 25 μmol/kg or 7.3 and 6.8 mg/kg, respectively and PNU-282987 at […] or 3, 10 mg/kg doses.
FIG. 21 illustrates the percentage of unfamiliar arm exploration in modified Y-maze of IND8 (FIG. 21A), QND8 (FIG. 21B), and IND8, QND8, PNU-282987 (FIG. 21C). IND8, QND8, PNU-282987, vehicle (15% Tween80, SH) and tacrine (TC) were injected 1 h and scopolamine (SC) 30 min before sample phase, respectively. Each mouse was placed at the end of one arm and allowed to access 2 arms of Y-maze for 5 min in sample phase. After a 30 min period, the mouse was allowed to explore 3 arms for 5 min. The number of entries for each arm was recorded and the percentage of unfamiliar arm exploration was calculated. Data represented in means±standard errors (SE).
Male ICR mice (6-weeks of age) were housed in 5 per cage with free access to food and tap water under 12 h light and dark cycle (light on 6:00 to 18:00) in a temperature and humidity controlled room. They were acclimated in a laboratory at least 7 days prior to starting experiments. The experimental protocols were approved by the Animal Care and Use Committee of KhonKaen University, Thailand.
Tacrine hydrochloride (Sigma-Aldrich, St. Louis, Mo.), PNU-282987 hydrochloride (Alamone, Jerusalem, Israel) and test compounds were prepared as suspensions by using 15% tween 80 in distilled water as a vehicle, whereas scopolamine hydrochloride (Sigma-Aldrich, St. Louis, Mo.) and methyllycaconitine citrate (MLA) (Abcam, Cambridge, England) were prepared as a solution by dissolving with 0.9% normal saline solution (NSS). All compounds were administered by intraperitoneal (i.p.) injection in the amount of 5 mL/kg. Test compounds were injected 1 h and scopolamine was administered 30 min before the experiments, whereas MLA was injected 5 min before the test compounds.
(§1) Amnesia was induced pharmacologically in mice via scopolamine injection (single dose) for 30 min prior to start the experiments. They were divided into vehicle group: receiving 15% tween 80 and 0.9% NSS, amnesia group: receiving scopolamine 1 mg/kg, standard positive control group receiving tacrine 1 mg/kg, and test group: receiving IND8, QND8 at dose 5, 10, 25, 50 μmol/kg, or PNU-282987 3, 10 mg/kg, single dose. All mice were acclimated in an experimental room at least 30 min before the experiments.
The maze in this experiment is the same apparatus using in locomotor activity test except there is the black partition to close one of three arms. The mice were randomly separated into different treatment groups. They were injected with test compounds and scopolamine at 1 h and 30 min, respectively, before the sample phase. In this phase which one arm of Y-maze was closed by the black partition, each mouse was placed at the end of one arm and allowed to move through 2 arms for 5 min to get familiar with the two opened arms. After 30 min of resting, all arms were opened and the mouse was allowed to move freely through all 3 arms. The maze area and the partition were cleaned with 70% ethanol between each experiment to remove olfactory cues. The number of entries in each arm was counted visually if mice accessed into each arm at least 10 cm. The percentage of unfamiliar arm exploration was calculated as following equation: […]

[2] = test system: scopolamine-induced amnesic mice; test: Object recognition test (ORT); settings: i.p., tacrine 1 mg/kg, IND8, QND8 10 and 50 μmol/kg
Method: FIG. 22 illustrates exploration time to familiar (F) and novel (N) objects of IND8 (A) and QND8 (B) in test phase of ORT. Each mouse was allowed to explore an open field apparatus for 5 min in a habituation phase. After a 24 h period, IND8, QND8, PNU-282987, vehicle (15% Tween80, SH) and tacrine (TC) were injected 1 h and scopolamine (SC) 30 min before sample phase, respectively. Each mouse explored 2 identical objects in the sample phase for 5 min and then placed in its cage for 10 min before the test phase began. In the 5 min of test phase, one of the objects was changed to a new one. The exploration time of these objects was recorded.
In both data sets, a discrimination index (DI) was calculated and used to evaluate the ability of mice to discriminate between familiar and novel objects. Data are represented in FIG. 23.
as §1
The apparatus was made of black polyvinyl chloride (52×52×40 cm). The objects used in this experiment had different visual shapes and colors to be discriminated. They were placed 10 cm from the side wall in the balanced manner. The box area and objects were cleaned with 70% ethanol between each experiment to remove odor cues.
The mice were randomly divided into different treatment groups. They were allowed to freely explore the open field apparatus for 5 min for habituation in the day prior to the experiments to get familiar with the apparatus. On the experimental day, test compounds injected 1 h, whereas scopolamine administered 30 min before the sample phase (acquisition trial). The mice were placed in the apparatus to explore 2 identical objects. After 10 min of acclimation in their cages, one object was changed to a new one, and mice were allowed to explore these objects for 5 min in the test phase (retention trial). The exploration time of each object was recorded if the nose of mice approached the objects within 3 cm or touched the objects. The discrimination index (DI) was calculated by using (TN−TF)/(TN+TF); TN and TF represented exploration time of new and familiar objects, respectively.

[3] = test system: scopolamine-induced amnesic mice; test: Water maze test; settings: i.p., IND8 25 and 50 μmol/kg, QND8 25 μmol/kg
Method: The water maze test, a model for spatial learning and reference memory, related to function in the hippocampus, was also used as a study model in which mice locate a hidden platform after training session. Mice were trained to locate a hidden platform until a steady state measured by a shortened escape latency time was reached.
The average swimming time in a target quadrant where the platform had previously been placed was measured in the test day, day 8 (FIG. 25).
FIG. 25 illustrates the average swimming time in the target quadrant of water maze test. Data are presented in means±SE. IND8, QND8, PNU-282987, vehicle (15% Tween80, SH) and tacrine (TC) were injected 1 h and scopolamine (SC) 30 min before testing, respectively.
A black circular tank (diameter 70 cm; height 28 cm) was divided into 4 quadrants with a removable escape platform (6×7.5×14 cm) centered in a target quadrant. The tank was filled with water to 15 cm height and the platform was located 1 cm below the water surface.
Mice were trained from 5-7 days to get the steady state of escape latency. During day 1 to 5, each mouse was trained to swim from each quadrant with 1 min maximum time and allowed to stay on the platform for 10 sec. The mouse is placed on the platform for 10 s if it cannot find the hidden platform within 1 min. The escape latency time from each quadrant was measured. […] The probe test began when the escape latency time reached the steady state. The platform was removed and time spent in the target quadrant was measured. On the next day, all conditions were the same as probe test, but the platform was brought back to remind the mice of the target quadrant location. All mice were injected with test compounds 1 h and scopolamine 30 min before testing. The swimming time in the target quadrant was measured.

## Nc1c2c(nc3ccccc13)CCCC2 [Tacrine, reference compound]
[1]
  Unfamiliar arm exploration / cognitive deficit, modified Y-maze vs scopolamine-treated group: reversed the cognitive deficit induced by scopolamine
[1]; listed as tacrine
  Unfamiliar arm exploration / cognitive deficit, modified Y-maze vs scopolamine-treated group: can improve cognitive deficits induced by scopolamine in all test models
[2]
  Discrimination index / episodic short-term memory, ORT vs scopolamine-treated group: significantly improved episodic short-term memory
[2]; listed as tacrine
  Discrimination index / episodic short-term memory, ORT vs scopolamine-treated group: can improve cognitive deficits induced by scopolamine in all test models
[3]
  Time in target quadrant, water maze vs scopolamine-treated group: significantly improved cognitive deficits
[3]; listed as tacrine
  Time in target quadrant, water maze vs scopolamine-treated group: can improve cognitive deficits induced by scopolamine in all test models
